Bridge positions count the residues as written; N and C are the ends. Square brackets hold non-standard residues; d marks the D form. Peptide text beside a SMILES is read from it. * marks the point of attachment. 2Nal = N[C@@H](Cc1ccc2ccccc2c1)C(=O)O; Benzoyl(4-F) = O=C(c1ccc(F)cc1)*; Cit = NC(=O)NCCC[C@H](N)C(=O)O
What was measured:
CHO-CXCR4 tumors [1] = conditions: 4-^18F-T140 alone, mice bearing CHO and CHO-CXCR4 tumors; Fig. 5A: 2 h after injection, 50 μCi
CHO-CXCR4 tumors [2] = conditions: in vivo
red blood cells = conditions: mouse, in vivo
[3] = tested on: stem cells from the bone marrow; conditions: compared with AMD3100/plerixafor; cited from earlier work
CXCR4 = conditions: cited from earlier work
[4] = female, athymic nude, mouse, iv, 3 h

| tumor-to-blood ratio (CHO-CXCR4) (CHO-CXCR4 tumors [2]; [4]) | tumor-to-muscle ratio (CHO-CXCR4) (CHO-CXCR4 tumors [2]; [4]) | difference of uptake between CHO-CXCR4 and CXCR4-negative CHO tumors (CHO-CXCR4 tumors [2]) | SMILES | PET visualization of tumors (CHO-CXCR4 tumors [1]) | binding to red blood cells (red blood cells) | in vivo mobilization of stem cells from the bone marrow [3] | CXCR4 antagonist selectivity (CXCR4) |
| --- | --- | --- | --- | --- | --- | --- | --- |
| 0.19 ± 0.04 | 2.94 ± 0.16 | not statistically significant | N=C(N)NCCC[C@H](NC(=O)[C@@H]1CSSC[C@H](NC(=O)[C@H](Cc2ccc3ccccc3c2)NC(=O)[C@H](CCCNC(=N)N)NC(=O)[C@H](CCCNC(=N)N)NC(=O)c2ccc(F)cc2)C(=O)N[C@@H](Cc2ccc(O)cc2)C(=O)N[C@@H](CCCNC(N)=O)C(=O)N[C@@H](CCCCN)C(=O)N[C@H](CCCCN)C(=O)N2CCC[C@H]2C(=O)N[C@@H](Cc2ccc(O)cc2)C(=O)N[C@@H](CCCNC(=N)N)C(=O)N[C@@H](CCCNC(N)=O)C(=O)N1)C(N)=O [4-^18F-T140, 4-^18F-benzoyl-TN14003] ({Benzoyl(4-F)}-RR[2Nal]CY[Cit]K[dK]PYR[Cit]CR-NH2; disulfide 4-13) | clearly showed both tumors | bind specifically to red blood cells in vitro and in vivo |  |  |
|  |  |  | N=C(N)NCCC[C@H](NC(=O)[C@@H]1CSSC[C@H](NC(=O)[C@H](Cc2ccc3ccccc3c2)NC(=O)[C@H](CCCNC(=N)N)NC(=O)[C@H](CCCNC(=N)N)NC(=O)c2ccc(F)cc2)C(=O)N[C@@H](Cc2ccc(O)cc2)C(=O)N[C@@H](CCCNC(N)=O)C(=O)N[C@@H](CCCCN)C(=O)N[C@H](CCCCN)C(=O)N2CCC[C@H]2C(=O)N[C@@H](Cc2ccc(O)cc2)C(=O)N[C@@H](CCCNC(=N)N)C(=O)N[C@@H](CCCNC(N)=O)C(=O)N1)C(N)=O [4-F-T140, 4-F-benzoyl-TN14003] ({Benzoyl(4-F)}-RR[2Nal]CY[Cit]K[dK]PYR[Cit]CR-NH2; disulfide 4-13) |  |  | increased in vivo mobilization of stem cells from the bone marrow | highly selective CXCR4 antagonist |

From PMC3629977 (Journal of nuclear medicine : official publication, Society …, 2010)
